Results: the NIST ThermoML archive (doi:10.1021/acs.jced.6b00655)
Several values for one entry are separate records, joined by “and”; a condition that tells them apart may be missing. Equal entries are not always repeated.

Key:
[1] = xn = mol fraction of the nth substance listed; settings: 100 kPa, Liquid, Vibrating tube method
[2] = 283.15 K; 100 kPa; Liquid; Vibrating tube method

CCCC[N+]1(C)CCCC1.O=S(=O)([O-])C(F)(F)F [1-butyl-1-methylpyrrolidinium trifluoromethanesulfonate] + c1ccccc1
[1], 283.15 K
Settings | mass density [kg/m3]
x2 = 0 | 1263.28
x2 = 0.047 | 1257.62
x2 = 0.095 | 1251.22
x2 = 0.199 | 1235.63
x2 = 0.293 | 1218.76
x2 = 0.405 | 1195.65
x2 = 0.503 | 1170.77
x2 = 0.601 | 1140.47
x2 = 0.644 | 1125.22
x2 = 0.675 | 1112.49
x2 = 0.701 | 1101.39
x2 = 0.718 | 1093.71
x2 = 0.738 | 1084.59

CCCC[N+](C)(CCCC)CCCC.O=S(=O)([N-]S(=O)(=O)C(F)(F)F)C(F)(F)F [tributylmethylammonium bis((trifluoromethyl)sulfonyl)imide] + Cc1ccc(C)cc1
[1], 343.15 K
Settings | mass density [kg/m3]
x2 = 0 | 1224.15
x2 = 0.106 | 1209.82
x2 = 0.257 | 1187.07
x2 = 0.37 | 1163.42
x2 = 0.459 | 1143.06
x2 = 0.552 | 1114.23
x2 = 0.7 | 1057.46

CCCC[N+]1(C)CCCC1.O=S(=O)([N-]S(=O)(=O)C(F)(F)F)C(F)(F)F + CCc1ccccc1
[1], 283.15 K
Settings | mass density [kg/m3]
x2 = 0 | 1410.45
x2 = 0.312 | 1332.47
x2 = 0.417 | 1296.15
x2 = 0.489 | 1268.45
x2 = 0.636 | 1201.58

CCCC[N+]1(C)CCCC1.N#CN=C=[N-] [1-butyl-1-methylpyrrolidinium dicyanamide] + c1ccccc1
[1], 283.15 K
Settings | mass density [kg/m3]
x2 = 0 | 1021.84
x2 = 0.051 | 1020.09
x2 = 0.099 | 1018.22
x2 = 0.199 | 1014.33
x2 = 0.293 | 1009.95
x2 = 0.401 | 1004.03
x2 = 0.505 | 996.7
x2 = 0.61 | 987.41
x2 = 0.637 | 984.55
x2 = 0.665 | 981.11
x2 = 0.69 | 978.4
x2 = 0.718 | 973.87

CCCC[N+]1(C)CCCC1.O=S(=O)([O-])C(F)(F)F [1-butyl-1-methylpyrrolidinium trifluoromethanesulfonate]
Settings | mass density
[2] | 1263.28 kg/m3 and 1263.17 kg/m3

CCCC[N+]1(C)CCCC1.N#CN=C=[N-] [1-butyl-1-methylpyrrolidinium dicyanamide]
Settings | mass density
[2] | 1021.84 kg/m3 and 1022.97 kg/m3 and 1022.94 kg/m3

CCCC[N+]1(C)CCCC1.O=S(=O)([N-]S(=O)(=O)C(F)(F)F)C(F)(F)F + Cc1ccc(C)cc1
[1], 283.15 K
Settings | mass density [kg/m3]
x2 = 0 | 1407.6
x2 = 0.207 | 1361.17
x2 = 0.357 | 1315.5
x2 = 0.507 | 1254.4
x2 = 0.617 | 1193.73

CCCC[N+]1(C)CCCC1.O=S(=O)([N-]S(=O)(=O)C(F)(F)F)C(F)(F)F + Cc1ccccc1
[1], 283.15 K
Settings | mass density [kg/m3]
x2 = 0 | 1407.6
x2 = 0.509 | 1276.06
x2 = 0.574 | 1250.95
x2 = 0.611 | 1228.59
x2 = 0.73 | 1160.93

CCCC[N+](C)(C)C.O=S(=O)([N-]S(=O)(=O)C(F)(F)F)C(F)(F)F [butyltrimethylammonium bis(trifluoromethylsulfonyl)imide] + Cc1ccc(C)cc1
[1], 343.15 K
Settings | mass density [kg/m3]
x2 = 0 | 1348.32
x2 = 0.056 | 1341.21
x2 = 0.096 | 1332.06
x2 = 0.196 | 1307.74
x2 = 0.307 | 1273.97
x2 = 0.414 | 1235.93
x2 = 0.486 | 1205.85

CCCC[N+](C)(CCCC)CCCC.O=S(=O)([N-]S(=O)(=O)C(F)(F)F)C(F)(F)F [tributylmethylammonium bis((trifluoromethyl)sulfonyl)imide] + Cc1ccccc1C
[1], 343.15 K
Settings | mass density [kg/m3]
x2 = 0 | 1224.15
x2 = 0.152 | 1204.93
x2 = 0.26 | 1188.05
x2 = 0.365 | 1168.37
x2 = 0.506 | 1134.17
x2 = 0.623 | 1096.91
x2 = 0.751 | 1046.57

CCCC[N+]1(C)CCCC1.N#CN=C=[N-] [1-butyl-1-methylpyrrolidinium dicyanamide] + Cc1ccc(C)cc1
[1], 283.15 K
Settings | mass density [kg/m3]
x2 = 0 | 1022.94
x2 = 0.055 | 1019.77
x2 = 0.109 | 1015.55
x2 = 0.21 | 1009.54
x2 = 0.27 | 1005.7
x2 = 0.335 | 1000.17
x2 = 0.389 | 993.97

CCCC[N+]1(C)CCCC1.N#CN=C=[N-] [1-butyl-1-methylpyrrolidinium dicyanamide] + Cc1ccccc1
[1], 283.15 K
Settings | mass density [kg/m3]
x2 = 0 | 1022.97
x2 = 0.054 | 1020.33
x2 = 0.103 | 1018.02
x2 = 0.205 | 1012.43
x2 = 0.304 | 1006.23
x2 = 0.387 | 1000.63
x2 = 0.454 | 993.84
x2 = 0.528 | 986.94

CCCC[N+]1(C)CCCC1.O=S(=O)([O-])C(F)(F)F [1-butyl-1-methylpyrrolidinium trifluoromethanesulfonate] + Cc1cccc(C)c1
[1], 283.15 K
Settings | mass density [kg/m3]
x2 = 0 | 1263.17
x2 = 0.054 | 1253.29
x2 = 0.11 | 1241.72
x2 = 0.202 | 1221.84
x2 = 0.308 | 1195.52
x2 = 0.352 | 1184.04
x2 = 0.402 | 1170.32
x2 = 0.418 | 1165.83

CCCC[N+]1(C)CCCC1.O=S(=O)([N-]S(=O)(=O)C(F)(F)F)C(F)(F)F + Cc1cccc(C)c1
[1], 283.15 K
Settings | mass density [kg/m3]
x2 = 0 | 1410.45
x2 = 0.206 | 1361.63
x2 = 0.372 | 1318.08
x2 = 0.491 | 1259.92
x2 = 0.616 | 1191.7

CCCC[N+](C)(CCCC)CCCC.O=S(=O)([N-]S(=O)(=O)C(F)(F)F)C(F)(F)F [tributylmethylammonium bis((trifluoromethyl)sulfonyl)imide] + c1ccccc1
[1], 343.15 K
Settings | mass density [kg/m3]
x2 = 0 | 1224.15
x2 = 0.048 | 1220.37
x2 = 0.097 | 1216.25
x2 = 0.198 | 1204.31
x2 = 0.294 | 1188.64
x2 = 0.393 | 1168.17
x2 = 0.506 | 1139.35
x2 = 0.596 | 1112.34
x2 = 0.701 | 1076.48
x2 = 0.738 | 1062.44
x2 = 0.774 | 1048.36
x2 = 0.801 | 1037.22
x2 = 0.823 | 1028.14
x2 = 0.85 | 1016.43
x2 = 0.865 | 1010.24

CCCC[N+]1(C)CCCC1.O=S(=O)([O-])C(F)(F)F [1-butyl-1-methylpyrrolidinium trifluoromethanesulfonate] + Cc1ccc(C)cc1
[1], 283.15 K
Settings | mass density [kg/m3]
x2 = 0 | 1263.17
x2 = 0.053 | 1249.16
x2 = 0.102 | 1242.37
x2 = 0.203 | 1216.86
x2 = 0.306 | 1195.95
x2 = 0.361 | 1180.48
x2 = 0.415 | 1164.5

CCCC[N+]1(C)CCCC1.O=S(=O)([O-])C(F)(F)F [1-butyl-1-methylpyrrolidinium trifluoromethanesulfonate] + CCc1ccccc1
[1], 283.15 K
Settings | mass density [kg/m3]
x2 = 0 | 1263.17
x2 = 0.044 | 1254.99
x2 = 0.107 | 1240.68
x2 = 0.209 | 1220.18
x2 = 0.309 | 1193.98
x2 = 0.391 | 1174.45
x2 = 0.42 | 1164.28
